Consider three compounds from patent US10160773B2, “Method for inducing cytotoxicity in cancer cells” (King Fahd University of Petroleum and Minerals, priority 2016, dated 2018).

Series [1] has as its system HCT15 (colon cancer cells). The series can be described thus: In vitro cytotoxic activity, MTT assay, HCT15. To be noted: 24 h incubation with complex, mean ± standard deviation. It is filed as cell-based, human. How it is done:
(§1) To examine the possible anticancer effect of complexes 1, 2, and cisplatin, a panel of three human tumor cell lines, A549 (lung cancer cells), MCF7 (breast cancer cells) and HCT15 (colon cancer cells) was used. The different human carcinoma cell cultures (A549, MCF7, HCT15) were first seeded at the concentration of 2×10^4 cells per mL in their respective growth mediums containing 10% FBS (fetal bovine serum) in a 96-well tissue culture plate and were incubated for 72 h at 37° C., 5% CO2 in air and 90% relative humidity in a CO2 incubator. After that the cell cultures were incubated for 24 h with 100 μL of cisplatin and the complexes (1-3) having 100, 50, 25 and 12.5 μM concentrations, prepared in growth medium. Further, the cultures were incubated with 100 μL of vital mitochondrial tetrazolium dye (3-(4,5-dimethylthiazol-2-yl)-2,5-diphenyltetrazolium bromide) (0.5 mg/ml) in a CO2 incubator at 37° C. in the dark for 4 h. After incubation, purple colored formazan crystals were formed due to the reduction of dye by mitochondrial succinate dehydrogenase enzyme. The resultant crystals were solublized by adding 100 μL of dimethylsulfoxide (DMSO). The colored solution formed was thoroughly mixed and read spectrophotometrically at 570 nm with Lab systems Multiskan EX-Enzyme-linked immunosorbent assay (EX-ELISA) reader against a reagent blank. All data presented are mean±standard deviation.
(§2) The anticancer activity of complexes 1-3 as well as cisplatin was evaluated against a panel of representative human tumor cell lines, which include, lung cancer cells (A549), breast cancer cells (MCF7) and colon cancer cells (HCT15). The results of in vitro cytotoxic activity are expressed as IC50 (concentration causing 50% reduction in cell viability) and are presented in Table 4. […] For 1, the IC50 values are closer to cisplatin. In going from 1 to 2, the substitution of two chlorine atoms by the chelating diamine ligand brought about a 1.5-3 times decrease in the antiproliferative activity of 2.

Series [2] deals with MCF7 (breast cancer cells). As to the kind of experiment: In vitro cytotoxic activity, MTT assay, MCF7. To be noted: 24 h incubation with complex, mean ± standard deviation. It is filed as cell-based, human. How it is done:
as §1, §2

The nature of series [3]: Cyclic voltammetry of the complexes at glassy carbon electrode. The class given is physicochemical. The note with it: cyclic voltammetric measurements. How it is done:
The voltammetric measurements were performed by using three electrode based Auto Lab electrochemical workstation (Netherland). The working electrode was glassy carbon electrode (GCE), while Ag/AgCl and platinum were used as reference counter electrodes respectively. The weights of the chemicals were measured by using GR-2000 electrical balance. The pH of the buffer was controlled by Accumet® XL50 pH meter. For electrochemical analysis, the compounds 1 and 2 were dissolved in the ethanol as their solubility was very poor in aqueous medium. Prior to each analysis, the GCE was polished as a mirror like surface with alumina slurry on the synthetic clothe. The cyclic voltammograms for various analyses were recorded from 0.0 V to +1.3 V with a scan rate of 0.1 V/s. Electrochemical behavior may be studied using the methods described by Al-Jaroudi et al. and Seliman et al. (incorporated by reference) and well known model proteins. […]
To get an insight into the reactivity of the complexes, the interactions of complexes 1 and 2 with model proteins, L-tyrosine, glutathione and lysozyme were studied electrochemically. The electrochemical behavior of complexes 1 and 2 in the presence of the proteins was analyzed by cyclic voltammetric technique (CV). […]

Another series deals with A549 (lung cancer cells). As to the kind of experiment: In vitro cytotoxic activity, MTT assay, A549. It is filed as cell-based, human. To be noted: 24 h incubation with complex, mean ± standard deviation. How it is done: as §1, §2
Series [4] can be described thus: Solubility in aqueous medium. It is filed as physicochemical.
A further series has as its target T1, Lysozyme protein (Gallus gallus, UniProt P00698).
T1 construct: the Lysozyme protein attained from chicken egg white; purchased Sigma-Aldrich; host or cells: chicken egg white (natural source)
The series can be described thus: Interaction with lysozyme by cyclic voltammetry. Set-up: species or system chicken. To be noted: 0.2 mM complex. How it is done: The voltammetric measurements were performed by using three electrode based Auto Lab electrochemical workstation (Netherland). The working electrode was glassy carbon electrode (GCE), while Ag/AgCl and platinum were used as reference counter electrodes respectively. The weights of the chemicals were measured by using GR-2000 electrical balance. The pH of the buffer was controlled by Accumet® XL50 pH meter. For electrochemical analysis, the compounds 1 and 2 were dissolved in the ethanol as their solubility was very poor in aqueous medium. Prior to each analysis, the GCE was polished as a mirror like surface with alumina slurry on the synthetic clothe. The cyclic voltammograms for various analyses were recorded from 0.0 V to +1.3 V with a scan rate of 0.1 V/s. Electrochemical behavior may be studied using the methods described by Al-Jaroudi et al. and Seliman et al. (incorporated by reference) and well known model proteins. See S. S. Al-Jaroudi, M. Altaf, A. Al-Saadi, A.-N. Kawde, S. Altuwaijri, S. Ahmad and A. A. Isab, Biometals, 2015, 28, 827-844; and A. Seliman, M. Altaf, A. Kawde, M. Wazeer and A. Isab, J. Coord. Chem., 2014, 67, 3431-3443, each incorporated herein by reference in their entirety.
Moreover, the interaction of these compounds was also explored with the Lysozyme protein attained from chicken egg white.

Series [5] relates to A549, MCF7 and HCT15 cells. As to the kind of experiment: In vitro cytotoxic activity, statements on the whole panel of three tumor cell lines. The class given is cell-based, human. How it is done: as §1, with “After incubation, purple colored formazan crystals were formed due to the reduction of dye by mitochondrial succinate dehydrogenase enzyme. The resultant crystals were solublized by adding 100 μL of dimethylsulfoxide (DMSO).” left out, “All data presented are mean±standard deviation.” left out
The anticancer activity of complexes 1-3 as well as cisplatin was evaluated against a panel of representative human tumor cell lines, which include, lung cancer cells (A549), breast cancer cells (MCF7) and colon cancer cells (HCT15). […]

T1 sequence (P00698 19-147): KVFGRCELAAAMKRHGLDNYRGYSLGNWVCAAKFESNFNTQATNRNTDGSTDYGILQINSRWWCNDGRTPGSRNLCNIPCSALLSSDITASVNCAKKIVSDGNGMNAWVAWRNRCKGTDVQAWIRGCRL

On to [Au(npen)2]Cl3 [Complex 2], for which the values for the IC50 (in series [1]; in series [2]; with A549 (lung cancer cells)) were 4.23 ± 1.31 µM, 7.77 ± 1.82 µM and 10.3 ± 2.82 µM, respectively. Besides, in series [3], the “stability of gold(III) center during reaction with L-tyrosine, glutathione and lysozyme” value is recorded as “remained stable”. For the same compound, in series [4], the “solubility in aqueous medium” value is on record as “very poor”. Moreover, the “effect of successive addition of Lysozyme on the complex peaks” value at Lysozyme protein is listed as “decrease in the current intensities of the complex peaks”. In addition, the “decrease in the antiproliferative activity in going from 1 to 2” value in series [5] (2 compared with 1, three cell lines) was 1.5-3 times.
With `N.N.[Cl][Pt][Cl]` [Cisplatin, cisplatin, reference compound], the IC50 in series [1] was 23.1 ± 3.78 µM; in series [2], 23.1 ± 3.78 µM; with A549 (lung cancer cells) it was 42.9 ± 1.99 µM.
Regarding `NC(c1cccc2ccccc12)C(N)c1cccc2ccccc12.O.O.[Au+3].[Cl-].[Cl-].[Cl-]` (stereo not drawn) [Complex 1, [Au(npen)Cl2]Cl.2H2O], the values for the IC50 (in series [1]; in series [2]; in the series on A549 (lung cancer cells)) were 9.4 ± 1.93 µM, 11.8 ± 2.6 µM and 28.8 ± 4.02 µM, respectively. Further, the “stability of gold(III) center during reaction with L-tyrosine, glutathione and lysozyme” value in series [3] is “remained stable”. Also, the “solubility in aqueous medium” value in series [4] is given as “very poor”. For the same compound, the “effect of successive addition of Lysozyme on the complex peaks” value on Lysozyme protein is recorded as “decrease in the current intensities of the complex peaks”. For the same compound, the “interaction with Lysozyme (comparison)” value on Lysozyme protein is reported as “more significant”. In series [5] (A549, MCF7, HCT15), the “antiproliferative potency, rank among the complexes” value was “least active”.
